Test [1] deals with Ross 308 broilers. Kind of test: Colon length and colon mucosa aspect in DSS-treated broiler chickens. The test is classed as in vivo. Particulars: DSS in drinking water, control diet. From the text: (§1) Material and Methods: • Experimental animals: Day-of-hatch male Ross 308 broilers were obtained from a local hatchery, placed in floor pens until 6 days of age, and provided heat to maintain an age-appropriate temperature. Chicks were provided ad libitum access to water and the balanced experimental diets meeting the poultry nutrition requirements recommended for Ross 308 broilers during the starter period from 1 to 16 days of age. • Experimental diets: A basal starter diet (CON) in the form of short pellets was formulated based on wheat, corn, and soybean meal (Table 14). The other experimental diets were formulated to contain 5% microalgae Aurantiochytrium mangrovei (MAG-5) or 2% curcumin (CUM-2) by replacing part of the cereal, protein or oil content. […]
(§2) • Dextran Sulfate Sodium (DSS) administration: DSS was used to increase intestinal permeability in broilers, by inducing epithelium damage. […] Fluorescence levels of diluted plasma (1:4 in saline solution 0.9% NaCl) were measured at an excitation wavelength of 485 nm and emission wavelength of 528 nm (BIOTEK synergie H1), and FITC-dextran concentration per mL of plasma was calculated based on a standard curve. • At the time of euthanisa, the colon was collected for morphometry. […] The colon (from the ileocecal junction to the cloaca) was then excised and its length was measured.

Test [2] concerns Ross 308 broilers. Kind of test: Gut permeability: FITC-dextran in plasma of DSS-treated broiler chickens. To be noted: DSS administration, control diet; blood 1 h after oral gavage. The test is classed as in vivo.
Text: as §1, §2

For the substance Dextran Sulfate Sodium [DSS], the “length of the colon” value with Ross 308 broilers [1] (16-day old chickens, compared with group without DSS) was “significantly increased”. Besides, in the test with Ross 308 broilers [1] (compared with DSS- control group), the “visual observation of the colon mucosa” value was “thinner, translucent, and more fragile”. In addition, in the test on Ross 308 broilers [2], the “flow of FITC-dextran through the gut barrier” value was “significantly increased”.
